Assay results published in patent publication US4623662A, “Antiatherosclerotic ureas and thioureas” (American Cyanamid Company, priority 1985, dated 1986).
Read-outs that look alike come from different tables or passages of the source.

Tests used:
[1] = molecular target: T1, fatty acyl CoA: cholesterol acyl transferase (ACAT) (Rattus norvegicus, UniProt O70536); experiment: Inhibition of fatty acyl CoA:cholesterol acyl transferase (ACAT), rat adrenal enzyme; type: biochemical
T1 construct: The supernatant, containing the microsomal fraction, served as the source of the cholesterol-esterifying enzyme; from tissue; host or cells: rat adrenals, supernatant of 1,000 x g centrifugation containing the microsomal fraction
T1 sequence (O70536 1-545): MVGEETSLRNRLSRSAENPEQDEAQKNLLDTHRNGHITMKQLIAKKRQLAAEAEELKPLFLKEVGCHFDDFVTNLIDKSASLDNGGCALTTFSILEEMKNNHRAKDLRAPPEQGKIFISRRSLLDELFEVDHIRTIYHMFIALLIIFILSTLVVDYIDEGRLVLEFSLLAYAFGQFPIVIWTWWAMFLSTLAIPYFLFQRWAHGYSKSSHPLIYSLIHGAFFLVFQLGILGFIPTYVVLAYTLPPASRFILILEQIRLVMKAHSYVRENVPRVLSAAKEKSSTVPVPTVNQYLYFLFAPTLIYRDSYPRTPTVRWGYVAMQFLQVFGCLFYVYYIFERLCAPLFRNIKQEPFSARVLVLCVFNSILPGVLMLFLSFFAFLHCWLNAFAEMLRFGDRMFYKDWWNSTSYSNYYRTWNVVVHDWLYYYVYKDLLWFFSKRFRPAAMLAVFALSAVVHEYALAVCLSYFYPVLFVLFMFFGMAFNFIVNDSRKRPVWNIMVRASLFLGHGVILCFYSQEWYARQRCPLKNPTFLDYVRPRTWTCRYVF
Summary of the method: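 Enzyme source was the microsomal supernatant of rat adrenal homogenate (0.2M potassium phosphate, pH 7.4) with BSA, preincubated with compound (5.2 μg/ml final for single-point) for 10 min at 37° C. Then [14C]oleoyl CoA added, 10 min at 37° C. TLC-separated cholesteryl ester was counted; percent inhibition versus control, IC50 from several concentrations.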

cholesterol absorption = experiment: Inhibition of cholesterol absorption in rats fed 1% cholesterol:0.5% cholic acid diet; type: in vivo, male Sprague-Dawley rats; settings: po, 336 h, rat, dose .03% of the diet, 2 weeks
Method: Inhibition of cholesterol absorption was determined by feeding male Sprague-Dawley rats, weighing 150-170 g, a 1% cholesterol:0.5% cholic acid diet for 2 weeks. The diet also contained compounds being tested at a dose of 0.001, 0.003, 0.01, or 0.03% of the diet. Control rats were fed the same diet without any compound. At the end of the test, the rats were sacrificed by decapitation. Blood was collected, centrifuged at […] for 10 minutes at 4° C.; and the serum was then analyzed for cholesterol and triglycerides enzymatically by the method of Trinder, P., Analyst, 77, 321 (1952) on a Centrifichem 400 analyzer. Livers were removed, a 0.4 g sample was taken from the center of the large lobe, and the sample was subjected to saponification using 25% saturated potassium hydroxide in ethanol. The resulting neutral sterols were extracted with petroleum ether and the extract analyzed for cholesterol. The effectiveness of the compound in inhibiting cholesterol absorption was measured by the lowering of either serum cholesterol or liver cholesterol relative the values for control rats.
Compounds which produced statistically significant inhibition of cholesterol absorption are considered to be active. Liver sterol (LS) and serum sterol (SS) values are expressed as a percentage of control values.

[2] = rat adrenal ACAT, final concentration 5.2 μg/ml, read-out: % Inhibition
[3] = read-out: LS (liver sterol), percentage of control values
[4] = read-out: SS (serum sterol), percentage of control values

Structure (SMILES)	inhibition at 5.2 µg/mL [1, 2] [%]	response vs control in vivo at 0.03 % (cholesterol absorption; [3]) [%]	response vs control in vivo at 0.03 % (cholesterol absorption; [4]) [%]	inhibition at 5.2 µg/mL [1] [%]
COc1ccccc1CN(Cc1ccccc1F)C(=O)Nc1ccc(C)cc1C [1-(2-Fluorobenzyl)-1-(2-methoxybenzyl)-3-(2,4-dimethylphenyl)urea]	41.5	20	45	–
CCCCCCCN(Cc1ccco1)C(=O)Nc1cc(C)c(C)cc1C [1-(2-Furanylmethyl)-1-heptyl-3-(2,4,5-trimethylphenyl)urea]	93.8	38	44	–
CCCCCCCN(Cc1ccco1)C(=O)Nc1c(Cl)cc(Cl)cc1Cl [1-(2-Furanylmethyl)-1-heptyl-3-(2,4,6-trichlorophenyl)urea]	96.1	34	37	–
CC(C)(C)CCN(Cc1cccs1)C(=O)Nc1c(Cl)cc(Cl)cc1Cl [1-(3,3-Dimethylbutyl)-1-(2-thienylmethyl)-3-(2,4,6-trichlorophenyl)urea]	–	56	58	90
CC(C)(C)CCN(Cc1ccc(Cl)cc1)C(=O)Nc1c(Cl)cc(Cl)cc1Cl [1-(3,3-Dimethylbutyl)-1-(4-chlorobenzyl)-3-(2,4,6-trichlorophenyl)urea]	–	41	73	90
Cc1cc(Cl)cc(C)c1NC(=O)N(CCC(C)(C)C)Cc1ccc(Cl)cc1 [1-(3,3-Dimethylbutyl)-1-(4-chlorobenzyl)-3-(4-chloro-2,6-dimethylphenyl)urea]	–	25	46	90
Cc1cc(Cl)ccc1NC(=O)N(CCC(C)(C)C)Cc1ccc(Cl)cc1 [1-(3,3-Dimethylbutyl)-1-(4-chlorobenzyl)-3-(4-chloro-2-methylphenyl)urea]	–	60	50	90
Cc1cc(NC(=O)N(CCC(C)(C)C)Cc2ccccc2)c(C)cc1Cl [1-(3,3-Dimethylbutyl)-1-(benzyl)-3-(4-chloro-2,5-dimethylphenyl)urea]	–	30	55	90
CC(C)(C)CCN(Cc1ccc(CC(C)(C)C)cc1)C(=O)Nc1c(Cl)cc(Cl)cc1Cl [1-(3,3-Dimethylbutyl)-1-[4-(2,2-dimethylpropyl)benzyl]-3-(2,4,6-trichlorophenyl)urea]	–	15	32	90
O=C(Nc1cc(Cl)c(Cl)cc1Cl)N(Cc1ccccc1)C(Cc1ccccc1)c1ccc(OCc2ccccc2)cc1 (centres unmarked) [1-Benzyl-1-[2-phenyl-1-(4-benzyloxyphenyl)ethyl]-3-(2,4,5-trichlorophenyl)urea]	95	–	–	–
Cc1cc(C)c(NC(=O)N(Cc2ccccc2)C(Cc2ccccc2)c2ccc(OCc3ccccc3)cc2)cc1C (centres unmarked) [1-Benzyl-1-[2-phenyl-1-(4-benzyloxyphenyl)ethyl]-3-(2,4,5-trimethylphenyl)urea]	93.7	–	–	–
O=C(Nc1ccc(Cl)cc1C(F)(F)F)N(Cc1ccccc1)C(Cc1ccccc1)c1ccc(OCc2ccccc2)cc1 (centres unmarked) [1-Benzyl-1-[2-phenyl-1-(4-benzyloxyphenyl)ethyl]-3-(2-trifluoromethyl-4-chlorophenyl)urea]	92	–	–	–
O=C(Nc1cccc(C(F)(F)F)c1)N(Cc1ccccc1)C(Cc1ccccc1)c1ccc(OCc2ccccc2)cc1 (centres unmarked) [1-Benzyl-1-[2-phenyl-1-(4-benzyloxyphenyl)ethyl]-3-(3-trifluoromethylphenyl)urea]	74	–	–	–
CC(C)(C)CCN(Cc1ccccc1)C(=O)Nc1c(F)cc(F)cc1F [1-Benzyl-1-[3,3-dimethylbutyl]-3-[2,4,6-trifluorophenyl]urea]	–	–	–	90
COc1ccc(OC)c(CCN(Cc2cccc(Cl)c2)C(=O)Nc2ccc(C)cc2C)c1 [1-[2-(2,5-Dimethoxyphenyl)ethyl]-1-(3-chlorobenzyl)-3-(2,4-dimethylphenyl)urea]	97.1	–	–	–
Cc1ccc(NC(=O)N(CCc2ccccc2Cl)Cc2ccc(C)c(C)c2)c(C)c1 [1-[2-(2-Chlorophenyl)ethyl]-1-(3,4-dimethylbenzyl)-3-(2,4-dimethylphenyl)urea]	92.8	–	–	–

Structure (SMILES)	inhibition at 5.2 µg/mL [1, 2] [%]	response vs control in vivo at 0.03 % (cholesterol absorption; [3]) [%]	response vs control in vivo at 0.03 % (cholesterol absorption; [4]) [%]	inhibition at 5.2 µg/mL [1] [%]
Cc1cccc(CN(CCc2ccccc2Cl)C(=O)Nc2ccc(C)cc2C)c1 [1-[2-(2-Chlorophenyl)ethyl]-1-(3-methylbenzyl)-3-(2,4-dimethylphenyl)urea]	56.1	–	–	–
Cc1ccc(NC(=O)N(CCc2ccccc2C)Cc2ccc(Br)cc2)c(C)c1 [1-[2-(2-Methylphenyl)ethyl]-1-(4-bromobenzyl)-3-(2,4-dimethylphenyl)urea]	29.2	–	–	–
COc1ccc(CCN(Cc2ccc(C)c(Cl)c2)C(=O)Nc2ccc(C)cc2C)cc1OC [1-[2-(3,4-Dimethoxyphenyl)ethyl]-1-(3-chloro-4-methylbenzyl)-3-(2,4-dimethylphenyl)urea]	53.3	–	–	–
COc1ccc(CCN(Cc2ccc(F)cc2)C(=O)Nc2ccc(C)cc2C)cc1OC [1-[2-(3,4-Dimethoxyphenyl)ethyl]-1-(4-fluorobenzyl)-3-(2,4-dimethylphenyl)urea]	57.4	–	–	–
Cc1ccc(CN(CCc2cccc(F)c2)C(=O)Nc2ccc(C)cc2C)cc1 [1-[2-(3-Fluorophenyl)ethyl]-1-(4-methylbenzyl)-3-(2,4-dimethylphenyl)urea]	–	–	–	80.5
Cc1cccc(CCN(Cc2cccc([N+](=O)[O-])c2)C(=O)Nc2ccc(C)cc2C)c1 [1-[2-(3-Methylphenyl)ethyl]-1-(3-nitrobenzyl)-3-(2,4-dimethylphenyl)urea]	95.7	–	–	–
Cc1ccc(NC(=O)N(CCc2cccc(C(F)(F)F)c2)Cc2ccccc2Cl)c(C)c1 [1-[2-(3-Trifluoromethylphenyl)ethyl]-1-(2-chlorobenzyl)-3-(2,4-dimethylphenyl)urea]	7.8	–	–	–
CCOc1ccc(CCN(Cc2ccc(C)cc2C)C(=O)Nc2ccc(C)cc2C)cc1 [1-[2-(4-Ethoxyphenyl)ethyl]-1-(2,4-dimethylbenzyl)-3-(2,4-dimethylphenyl)urea]	34.9	–	–	–
CCOc1ccc(CCN(Cc2ccccc2Cl)C(=O)Nc2ccc(C)cc2C)cc1 [1-[2-(4-Ethoxyphenyl)ethyl]-1-(2-chlorobenzyl)-3-(2,4-dimethylphenyl)urea]	94.1	–	–	–
CC(C)(C)CCN(Cc1ccc(CC(C)(C)C)cc1)C(=O)Nc1c(F)cc(F)cc1F [1-[3,3-dimethylbutyl]-1-[[4-(2,2-dimethylpropyl)phenyl]methyl]-3-[2,4,6-trifluorophenyl]urea]	–	–	–	90
CCCCc1ccc(CN(CCCCCCOS(C)(=O)=O)C(=O)Nc2c(Cl)cc(Cl)cc2Cl)cc1 [1-[(4-Butylphenyl)methyl]-1-[6-(methylsulfonyloxy)-hexyl]-3-(2,4,6-trichlorophenyl)urea]	–	–	–	90
CCCCc1ccc(CN(CCCCCCO)C(=O)Nc2ccc(C)cc2C)cc1 [1-[(4-Butylphenyl)methyl]-3-(2,4-dimethylphenyl)-1-(6-hydroxyhexyl)urea]	96.8	–	–	–
CCCCc1ccc(CN(CCOCCO)C(=O)Nc2ccc(C)cc2C)cc1 [1-[(4-Butylphenyl)methyl]-3-(2,4-dimethylphenyl)-1-[2-(2-hydroxyethoxy)ethyl]urea]	74.5	–	–	–
CCCCc1ccc(CN(CCCCCCOS(C)(=O)=O)C(=O)Nc2ccc(Cl)cc2C)cc1 [1-[(4-Butylphenyl)methyl]-3-(4-chloro-2-methylphenyl)-1-[6-[(methylsulfonyl)oxy]hexyl]urea]	–	–	–	90
CCCCCCCN(Cc1ccc(CCCC)cc1)C(=O)Nc1c(F)cc(F)cc1F [1-[(4-butylphenyl)methyl]-1-(n-heptyl)-3-[2,4,6-trifluorophenyl]urea]	–	–	–	90
CCCCc1ccc(CN(CCC(C)(C)C)C(=O)Nc2c(F)cc(F)cc2F)cc1 [1-[(4-butylphenyl)methyl]-1-[3,3-dimethylbutyl]-3-[2,4,6-trifluorophenyl]urea]	–	–	–	90
